Laboratory results: ChEMBL document CHEMBL1134402, “Atropisomeric derivatives of 2',6'-disubstituted (R)-11-phenylaporphine: selective serotonin 5-HT(7) receptor antagonists” (J Med Chem, 2001)

Legend:
[1] = biological target: 5-hydroxytryptamine receptor 7 (Rattus norvegicus) (UniProt P32305); test: Percent inhibition of 5-HT7-induced stimulation of cAMP production in CHO cells expressing rat 5-HT receptors at a concentration of 1 nM; type: cell-based
[2] = biological target: T1, 5-hydroxytryptamine receptor 1A (Homo sapiens, UniProt P08908); test: Displacement of [3H]8-OH-DPAT from human 5-hydroxytryptamine 1A receptor expressed in CHO cells; type: cell-based
T1 sequence (P08908 whole entry): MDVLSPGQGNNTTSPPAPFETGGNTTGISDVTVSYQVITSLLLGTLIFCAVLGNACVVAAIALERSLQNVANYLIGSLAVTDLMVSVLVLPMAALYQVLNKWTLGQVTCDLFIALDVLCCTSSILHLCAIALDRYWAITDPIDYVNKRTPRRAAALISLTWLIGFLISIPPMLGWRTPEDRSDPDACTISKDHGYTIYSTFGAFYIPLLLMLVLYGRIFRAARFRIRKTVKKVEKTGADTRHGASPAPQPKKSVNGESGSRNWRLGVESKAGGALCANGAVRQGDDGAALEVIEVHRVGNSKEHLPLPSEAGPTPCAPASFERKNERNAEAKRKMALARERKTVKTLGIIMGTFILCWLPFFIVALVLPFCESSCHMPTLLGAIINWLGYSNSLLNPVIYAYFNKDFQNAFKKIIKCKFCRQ

[3] = biological target: 5-hydroxytryptamine receptor 7 (Rattus norvegicus) (UniProt P32305); test: Percent inhibition of 5-HT7-induced stimulation of cAMP production in CHO cells expressing rat 5-HT receptors at a concentration of 100 nM; type: cell-based
[4] = biological target: 5-hydroxytryptamine receptor 7 (Rattus norvegicus) (UniProt P32305); test: Percent inhibition of 5-HT7-induced stimulation of cAMP production in CHO cells expressing rat 5-HT receptors at a concentration of 10000 nM; type: cell-based
[5] = biological target: 5-hydroxytryptamine receptor 7 (Rattus norvegicus, UniProt P32305); test: Displacement of [3H]5-HT from rat 5-hydroxytryptamine 7 receptor expressed in CHO cells; type: cell-based
5-hydroxytryptamine receptor 7, sequence (P32305 whole entry): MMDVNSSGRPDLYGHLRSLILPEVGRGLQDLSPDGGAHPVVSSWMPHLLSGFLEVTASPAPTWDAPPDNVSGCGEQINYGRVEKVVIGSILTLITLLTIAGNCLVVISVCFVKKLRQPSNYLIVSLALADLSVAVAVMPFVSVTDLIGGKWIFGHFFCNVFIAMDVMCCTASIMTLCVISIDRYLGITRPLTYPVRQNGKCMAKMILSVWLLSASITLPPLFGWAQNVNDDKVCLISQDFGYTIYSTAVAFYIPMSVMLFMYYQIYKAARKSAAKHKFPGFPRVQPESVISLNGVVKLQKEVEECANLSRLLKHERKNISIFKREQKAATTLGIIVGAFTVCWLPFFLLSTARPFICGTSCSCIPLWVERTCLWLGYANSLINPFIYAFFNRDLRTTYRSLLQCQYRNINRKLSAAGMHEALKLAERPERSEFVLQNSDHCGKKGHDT

D(2) dopamine receptor = D(2) dopamine receptor (Homo sapiens, UniProt P14416); test: Displacement of [3H]raclopride from human dopamine receptor D2A expressed in mouse Ltk cells; type: cell-based
D(2) dopamine receptor, sequence (P14416 whole entry): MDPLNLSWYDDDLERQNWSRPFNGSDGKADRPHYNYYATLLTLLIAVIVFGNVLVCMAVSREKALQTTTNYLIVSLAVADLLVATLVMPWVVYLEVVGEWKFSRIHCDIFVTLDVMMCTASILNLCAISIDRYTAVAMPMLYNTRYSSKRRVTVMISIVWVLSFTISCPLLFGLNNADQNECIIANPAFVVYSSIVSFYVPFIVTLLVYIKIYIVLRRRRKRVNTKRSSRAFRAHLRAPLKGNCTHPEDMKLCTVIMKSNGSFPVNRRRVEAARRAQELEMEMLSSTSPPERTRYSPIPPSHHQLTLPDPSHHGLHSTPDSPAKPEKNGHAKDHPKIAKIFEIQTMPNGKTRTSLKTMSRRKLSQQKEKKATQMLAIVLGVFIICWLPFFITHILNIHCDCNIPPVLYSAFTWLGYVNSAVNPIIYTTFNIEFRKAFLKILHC

[6] = biological target: 5-hydroxytryptamine receptor 7 (Rattus norvegicus) (UniProt P32305); conditions: CHO; 10000 nM
[7] = biological target: 5-hydroxytryptamine receptor 7 (Rattus norvegicus) (UniProt P32305); conditions: CHO; 100 nM
[8] = biological target: 5-hydroxytryptamine receptor 7 (Rattus norvegicus) (UniProt P32305); conditions: CHO; 1 nM
[9] = biological target: 5-hydroxytryptamine receptor 7 (Rattus norvegicus) (UniProt P32305); test: Percent inhibition of 5-HT7-induced stimulation of cAMP production in CHO cells expressing rat 5-HT receptors by 1 nM 5-HT.; type: cell-based
[10] = biological target: 5-hydroxytryptamine receptor 7 (Rattus norvegicus) (UniProt P32305); test: Percent inhibition of 5-HT7-induced stimulation of cAMP production in CHO cells expressing rat 5-HT receptors by 100 nM 5-HT.; type: cell-based
[11] = biological target: 5-hydroxytryptamine receptor 7 (Rattus norvegicus) (UniProt P32305); test: Percent inhibition of 5-HT7-induced stimulation of cAMP production in CHO cells expressing rat 5-HT receptors by 10000 nM 5-HT.; type: cell-based

5-hydroxytryptamine receptor 7 (Rattus norvegicus), sequence (P32305 whole entry): as the sequence (P32305 whole entry) above

Row | Structure (SMILES) | Ki [2] [nM] | Ki [5] [nM] | Ki (D(2) dopamine receptor) [nM] | further results
1 | CN1CCc2cccc3c2[C@H]1Cc1cccc(-c2ccccc2)c1-3 | 1.8 | 9.78 | – | inhibition [1]: 23%; inhibition [3]: 30%; inhibition [4]: 100%
2 | Cc1cccc(S(=O)(=O)N(C)[C@H](C)CCN2CCC(C)CC2)c1 [SB-258719] | > 7940 | 31.6 | – | –
3 | CN1CCc2cccc3c2[C@H]1Cc1cccc(-c2c(O)cccc2O)c1-3 | 139 | 36.2 | > 1000 | –
4 | Cc1cccc(C#N)c1-c1cccc2c1-c1cccc3c1[C@@H](C2)N(C)CC3 (stereo in doubt; form 1) [listing 1 of 2 here] | 778 | 20.8 | 2470 | –
5 | Cc1cccc(O)c1-c1cccc2c1-c1cccc3c1[C@@H](C2)N(C)CC3 (stereo in doubt; form 2) [listing 1 of 2 here] | 319 | 43.1 | 3380 | –
6 | Cc1cccc(O)c1-c1cccc2c1-c1cccc3c1[C@@H](C2)N(C)CC3 (stereo in doubt; form 2) [listing 2 of 2 here] | – | – | – | inhibition [1]: 21%; inhibition [3]: 43%; inhibition [4]: 100%
7 | Cc1cccc(C#N)c1-c1cccc2c1-c1cccc3c1[C@@H](C2)N(C)CC3 (stereo in doubt; form 1) [listing 2 of 2 here] | – | – | – | inhibition [6]: 100%; inhibition [7]: 42%; inhibition [8]: 21%
8 | O=C1Nc2cccc3c2[C@]1(CCCCN1CC=C(c2ccccc2)CC1)CCC3 | 170 | 3.31 | 105 | –
9 | COc1cccc(OC)c1-c1cccc2c1-c1cccc3c1[C@@H](C2)N(C)CC3 | 554 | 13 | 2030 | –
10 | Cc1cccc(O)c1-c1cccc2c1-c1cccc3c1[C@@H](C2)N(C)CC3 (stereo in doubt; form 1) [listing 1 of 2 here] | 48.8 | 23 | 2500 | –
11 | Cc1cccc(O)c1-c1cccc2c1-c1cccc3c1[C@@H](C2)N(C)CC3 (stereo in doubt; form 1) [listing 2 of 2 here] | – | – | – | inhibition [9]: 11%; inhibition [10]: 72%; inhibition [11]: 100%
12 | CN1CCc2cccc3c2[C@H]1Cc1cccc(-c2c(OS(=O)(=O)C(F)(F)F)cccc2OS(=O)(=O)C(F)(F)F)c1-3 | > 10000 | 708 | 2260 | –
13 | Cc1cccc(C#N)c1-c1cccc2c1-c1cccc3c1[C@@H](C2)N(C)CC3 (stereo in doubt; form 2) | 142 | 3.79 | 498 | –
